The source of these data is patent US20140057915A1, “KINASE INHIBITORS” (TOPIVERT PHARMA LIMITED, priority 2012, published 2014).

The test system of one data set is mice. The data set is described as follows: Mouse cigarette (tobacco) smoke model. The settings on record: 1.75 μg/mouse (35 μL, bid, i.n.). It counts as in vivo. The text has this:
The result of treatment with compound Example (8) on macrophage and neutrophil accumulation in BALF in the mouse cigarette smoke model was investigated (Table 5).

Data set [1] has as its system ICAM-1 expression, BEAS2B cells. The data set is described as follows: Poly I:C-induced ICAM-1 expression in BEAS2B cells. It counts as cell-based. The settings on record: Homo sapiens, BEAS-2B; read-out: Poly IC induced ICAM1 in BEAS2B, IC50. An outline of the steps:
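BEAS2B human bronchial epithelial cells pre-incubated 2 h with compound, then transfected with poly I:C (1 μg/mL) plus Oligofectamine. After 18 h, cell-surface ICAM-1 read by cell-based ELISA (A450–655), normalised to Crystal Violet cell number (A595); inhibition calculated against vehicle control at each concentration.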

The subject of another data set is d-U937 cells. The data set is described as follows: Cell viability: MTT assay. It counts as cell-based, human. The settings on record: 1 μg/mL. In short, it runs like this: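 Differentiated U937 cells exposed to compound at 1 or 10 μg/mL, either 4 h in 5% FCS or 24 h in 10% FCS RPMI1640. MTT then added for 1 h, formazan dissolved in DMSO and read at 550 nm. Viability loss given as % versus 0.5% DMSO vehicle; apparent gains appear negative.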

Data set [2] concerns TNFα release, d-U937 cells. The experiment in a line: LPS-induced TNFα release in d-U937 cells. It counts as cell-based. The settings on record: Homo sapiens, dU937; relative to 10 μg/mL BIRB796; Table 4c1; read-out: LPS Induced Release of Cytokine in d-U937 Cells, TNFα REC50. In short, it runs like this:
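U937 cells differentiated with PMA (100 ng/mL, 48–72 hr), pre-treated with compound for 2 hr, then stimulated with E. coli LPS (0.1 μg/mL) for 4 hr. Supernatant cytokine measured by sandwich ELISA; inhibition versus vehicle control, REC50 from concentration-response curve.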

In a further data set the target is p38 MAPKα (Homo sapiens, UniProt Q16539). The data set is described as follows: Enzyme binding assay (Kinomescan). The settings on record: read-out: % Inhibition of kinase binding at 500 nM, p38 MAPKα. The method, then:
(§1) Enzyme Binding Assays (Kinomescan)
(§2) The kinase enzyme binding activities of compounds disclosed herein were determined using a proprietary assay which measures active site-directed competition binding to an immobilized ligand (Fabian, M. A. et al., Nature Biotechnol., 2005, 23:329-336). These assays were conducted by DiscoverX (formerly Ambit; San Diego, Calif.). The percentage inhibition produced by incubation with a test compound is calculated relative to the non-inhibited control.

The target in the next data set is B-Raf (Homo sapiens, UniProt P15056). The data set is described as follows: Enzyme binding assay (Kinomescan). The settings on record: read-out: % Inhibition of kinase binding at 500 nM, B-Raf. The method, then: as §1, §2
B-Raf, sequence (P15056 whole entry): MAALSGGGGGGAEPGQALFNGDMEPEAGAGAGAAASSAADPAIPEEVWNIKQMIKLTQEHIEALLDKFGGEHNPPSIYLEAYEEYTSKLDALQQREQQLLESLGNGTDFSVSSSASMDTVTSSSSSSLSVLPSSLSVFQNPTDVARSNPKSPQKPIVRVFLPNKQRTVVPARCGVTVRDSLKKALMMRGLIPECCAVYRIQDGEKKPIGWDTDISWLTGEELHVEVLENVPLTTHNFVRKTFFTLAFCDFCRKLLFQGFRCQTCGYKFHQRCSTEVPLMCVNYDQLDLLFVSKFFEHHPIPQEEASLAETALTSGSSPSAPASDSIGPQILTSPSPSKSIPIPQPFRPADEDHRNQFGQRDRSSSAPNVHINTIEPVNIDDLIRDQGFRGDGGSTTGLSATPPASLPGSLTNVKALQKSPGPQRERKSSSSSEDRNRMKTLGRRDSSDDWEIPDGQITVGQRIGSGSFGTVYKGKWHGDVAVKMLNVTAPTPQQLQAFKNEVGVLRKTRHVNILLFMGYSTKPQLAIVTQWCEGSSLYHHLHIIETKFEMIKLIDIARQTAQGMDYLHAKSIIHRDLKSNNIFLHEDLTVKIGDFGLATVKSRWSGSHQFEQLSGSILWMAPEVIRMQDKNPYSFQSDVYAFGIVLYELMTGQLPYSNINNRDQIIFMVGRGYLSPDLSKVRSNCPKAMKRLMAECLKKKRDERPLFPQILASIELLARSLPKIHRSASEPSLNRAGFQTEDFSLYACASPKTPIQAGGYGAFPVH
For the next data set, the target named is Syk (Homo sapiens, UniProt P43405). The experiment in a line: Enzyme binding assay (Kinomescan). The settings on record: read-out: % Inhibition of kinase binding at 500 nM, Syk. Here is the method: as §1
(§3) These assays were conducted by DiscoverX (formerly Ambit; San Diego, Calif.). The percentage inhibition produced by incubation with a test compound is calculated relative to the non-inhibited control.

The next data set concerns the target GSK3α (Homo sapiens, UniProt P49840). The data set is described as follows: Enzyme binding assay (Kinomescan). The settings on record: read-out: % Inhibition of kinase binding at 500 nM, GSK3α. Here is the method: as §3

p38 MAPKα, sequence (Q16539 whole entry): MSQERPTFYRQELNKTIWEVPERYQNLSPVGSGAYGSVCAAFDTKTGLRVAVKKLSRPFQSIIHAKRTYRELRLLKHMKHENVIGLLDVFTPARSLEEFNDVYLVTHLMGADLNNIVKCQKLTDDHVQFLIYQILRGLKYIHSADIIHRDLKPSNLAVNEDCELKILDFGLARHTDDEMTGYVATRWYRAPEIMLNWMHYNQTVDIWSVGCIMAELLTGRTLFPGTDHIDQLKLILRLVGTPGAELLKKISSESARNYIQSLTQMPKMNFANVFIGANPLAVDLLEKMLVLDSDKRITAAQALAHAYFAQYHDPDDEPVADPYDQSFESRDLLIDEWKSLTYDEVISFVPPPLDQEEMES
GSK3α, sequence (P49840 whole entry): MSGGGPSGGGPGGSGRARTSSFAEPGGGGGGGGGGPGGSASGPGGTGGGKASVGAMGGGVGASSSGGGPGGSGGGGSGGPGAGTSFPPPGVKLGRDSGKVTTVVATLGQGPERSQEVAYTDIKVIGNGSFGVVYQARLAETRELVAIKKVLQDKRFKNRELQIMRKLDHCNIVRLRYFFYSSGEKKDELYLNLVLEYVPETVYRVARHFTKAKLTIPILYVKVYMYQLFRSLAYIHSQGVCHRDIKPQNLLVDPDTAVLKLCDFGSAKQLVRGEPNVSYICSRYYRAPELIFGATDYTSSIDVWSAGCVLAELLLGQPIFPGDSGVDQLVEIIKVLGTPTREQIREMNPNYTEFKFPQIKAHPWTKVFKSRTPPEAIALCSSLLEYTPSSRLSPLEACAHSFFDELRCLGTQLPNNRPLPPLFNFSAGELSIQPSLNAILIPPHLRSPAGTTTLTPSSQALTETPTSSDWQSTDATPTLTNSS

For `CCC(=O)O[C@]1(C(=O)SCF)[C@H](C)C[C@H]2[C@@H]3C[C@H](F)C4=CC(=O)C=C[C@]4(C)[C@@]3(F)[C@@H](O)C[C@@]21C` [fluticasone propionate], the “neutrophil or macrophage accumulation into airways” value in the data set on mice was “did not inhibit”.

`COCC(=O)Nc1cc(Oc2ccc(NC(=O)Nc3cc(C(C)(C)C)nn3-c3ccc(C)cc3)c3ccccc23)ccn1` [Reference Compound, N-(4-(4-(3-(3-tert-butyl-1-p-tolyl-1H-pyrazol-5-yl)ureido)naphthalen-1-yloxy)pyridin-2-yl)-2-methoxyacetamide, reference compound]: the half-inhibitory concentration (IC50) in data set [1] turned out to be 2.1 nM. Besides, the “Cell viability at time point in d-U937 cells, 4 h” value in the data set with d-U937 cells (4 h) is “−ve (−ve and +ve indicate that the value is below and above respectively, the no significant effect threshold, defined as 30% inhibition at 1 μg/mL at the time point indicated)”. The “Cell viability at time point in d-U937 cells, 24 h” value in the data set on d-U937 cells (24 h) was “+ve (−ve and +ve indicate that the value is below and above respectively, the no significant effect threshold, defined as 30% inhibition at 1 μg/mL at the time point indicated)”. Also, in data set [2], the EC50 was determined as 0.13 nM. Besides, the inhibition at 0.5 µM was 100% at p38 MAPKα, 70% on B-Raf, 95% on Syk and 84% at GSK3α.
